Measurements published in ChEMBL document CHEMBL1154111, “Potent, orally bioavailable, liver-selective stearoyl-CoA desaturase (SCD) inhibitors” (Bioorg Med Chem Lett, 2009).
pIC50: −log10 of the molar value.

Legend:
Acyl-CoA desaturase 1 = biological target: T1, Acyl-CoA desaturase 1 (Rattus norvegicus, UniProt P07308); assay: Inhibition of stearoyl-CoA delta9 desaturase in rat microsome
T1 sequence (P07308 whole entry): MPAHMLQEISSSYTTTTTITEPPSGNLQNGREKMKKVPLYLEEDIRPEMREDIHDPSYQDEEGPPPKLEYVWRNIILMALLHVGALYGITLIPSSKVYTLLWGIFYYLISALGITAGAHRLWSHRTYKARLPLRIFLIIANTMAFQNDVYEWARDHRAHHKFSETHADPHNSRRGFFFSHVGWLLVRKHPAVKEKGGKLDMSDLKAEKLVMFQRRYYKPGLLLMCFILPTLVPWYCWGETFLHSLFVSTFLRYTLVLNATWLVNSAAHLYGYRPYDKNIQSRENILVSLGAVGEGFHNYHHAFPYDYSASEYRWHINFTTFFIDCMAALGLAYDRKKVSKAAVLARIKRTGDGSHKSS

[1] = Metabolic stability in human liver microsome after 30 mins; assay type: ADME; conditions: liver microsomes, read-out: Stability
[2] = Metabolic stability in Sprague-Dawley rat liver microsome after 30 mins; assay type: ADME; conditions: liver microsomes, read-out: Stability
Rattus norvegicus [3] = assay: Dose normalized AUC in Sprague-Dawley rat at 1 mg/kg, po; assay type: ADME, organism-based; parameters: dose 1 mg/kg, route oral; conditions: in vivo
[4] = Cmax in Sprague-Dawley rat at 1.5 mg/kg, po; assay type: ADME, organism-based; parameters: dose 1.5 mg/kg, route oral; conditions: in vivo
[5] = Oral bioavailability in Sprague-Dawley rat at 1.5 mg/kg; assay type: ADME, organism-based; conditions: in vivo
[6] = Plasma clearance in Sprague-Dawley rat plasma at 1 mg/kg, iv; assay type: ADME, organism-based; parameters: dose 1 mg/kg, route intravenous
[7] = Terminal volume of distribution in Sprague-Dawley rat at 1.5 mg/kg, po and 1 mg/kg, iv; assay type: ADME, organism-based; conditions: in vivo, read-out: Vbeta
[8] = Elimination half life in Sprague-Dawley rat at 1 mg/kg, iv; assay type: ADME, organism-based; parameters: dose 1 mg/kg, route intravenous; conditions: in vivo, read-out: beta t1/2 (converted)
[9] = Apparent permeability from apical to basolateral side of human Caco-2 cells; assay type: ADME, cell-based
[10] = Apparent permeability from basolateral to apical side of human Caco-2 cells; assay type: ADME, cell-based
[11] = biological target: Acyl-CoA (8-3)-desaturase (Rattus norvegicus, UniProt Q920R3); assay: Inhibition of stearoyl-CoA delta5 desaturase in rat microsome
Acyl-CoA 6-desaturase = Acyl-CoA 6-desaturase (Rattus norvegicus, UniProt Q9Z122); assay: Inhibition of stearoyl-CoA delta6 desaturase in rat microsome
Rattus norvegicus [12] = assay: Inhibition of stearoyl-CoA delta9 desaturase in high-carbohydrate diet-fed Sprague-Dawley rat dosed orally BID for 5 days assessed as reduction in liver palmitoleic and vaccenic acid level; assay type: functional, organism-based
Rattus norvegicus [13] = assay: Inhibition of stearoyl-CoA delta9 desaturase in high-carbohydrate diet-fed Sprague-Dawley rat dosed orally BID for 5 days assessed as reduction in plasma palmitoleic and vaccenic acid level; assay type: functional, organism-based
Rattus norvegicus [14] = assay: Reduction in liver triglyceride level in high-carbohydrate diet-fed Sprague-Dawley rat at 20 mg/kg, po, BID after 5 days measured after 4 hrs of last dose relative to control; assay type: functional; parameters: scale not given: the % may be the effect or the level left
Stearoyl-CoA desaturase = biological target: T2, Stearoyl-CoA desaturase (Homo sapiens, UniProt O00767); assay: Inhibition of stearoyl-CoA delta9 desaturase in human HepG2 cells; assay type: cell-based
T2 sequence (O00767 whole entry): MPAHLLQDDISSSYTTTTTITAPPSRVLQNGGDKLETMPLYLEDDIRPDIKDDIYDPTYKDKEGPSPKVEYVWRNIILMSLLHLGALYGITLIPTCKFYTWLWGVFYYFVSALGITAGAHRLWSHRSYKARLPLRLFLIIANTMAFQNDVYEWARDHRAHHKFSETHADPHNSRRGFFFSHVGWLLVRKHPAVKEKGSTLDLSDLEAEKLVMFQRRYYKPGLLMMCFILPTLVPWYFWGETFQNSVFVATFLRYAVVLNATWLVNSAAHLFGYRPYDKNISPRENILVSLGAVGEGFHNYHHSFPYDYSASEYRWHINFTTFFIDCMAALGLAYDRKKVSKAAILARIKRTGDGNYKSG

Chain of Acyl-CoA (8-3)-desaturase (Q920R3 whole entry): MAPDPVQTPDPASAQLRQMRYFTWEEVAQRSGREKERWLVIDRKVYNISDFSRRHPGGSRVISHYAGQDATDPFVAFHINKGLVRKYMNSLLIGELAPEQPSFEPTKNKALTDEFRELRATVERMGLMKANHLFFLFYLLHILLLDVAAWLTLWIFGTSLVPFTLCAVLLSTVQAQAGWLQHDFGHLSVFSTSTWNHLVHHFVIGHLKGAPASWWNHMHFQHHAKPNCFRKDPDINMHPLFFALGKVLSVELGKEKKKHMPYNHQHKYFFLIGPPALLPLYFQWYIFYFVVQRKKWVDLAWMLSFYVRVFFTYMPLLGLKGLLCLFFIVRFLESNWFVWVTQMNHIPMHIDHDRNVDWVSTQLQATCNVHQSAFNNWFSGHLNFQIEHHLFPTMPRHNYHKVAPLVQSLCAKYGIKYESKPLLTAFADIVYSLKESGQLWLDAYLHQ
Chain of Acyl-CoA 6-desaturase (Q9Z122 whole entry): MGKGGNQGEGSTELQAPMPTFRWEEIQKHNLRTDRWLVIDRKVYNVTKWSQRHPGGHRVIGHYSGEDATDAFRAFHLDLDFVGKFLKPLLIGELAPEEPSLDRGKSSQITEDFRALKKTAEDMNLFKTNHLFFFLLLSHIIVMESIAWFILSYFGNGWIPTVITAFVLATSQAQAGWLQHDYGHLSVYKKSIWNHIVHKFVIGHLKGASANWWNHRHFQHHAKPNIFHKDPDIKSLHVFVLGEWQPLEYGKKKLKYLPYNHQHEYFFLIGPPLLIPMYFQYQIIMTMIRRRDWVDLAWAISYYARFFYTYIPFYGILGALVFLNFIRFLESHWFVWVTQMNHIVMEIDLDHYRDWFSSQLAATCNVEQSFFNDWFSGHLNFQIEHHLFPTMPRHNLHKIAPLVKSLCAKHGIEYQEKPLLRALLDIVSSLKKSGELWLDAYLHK

Compound	pIC50 (Acyl-CoA desaturase 1)	remaining at 0.5 h [1]	remaining at 0.5 h [2]	pIC50 (Stearoyl-CoA desaturase)	also measured
Cc1nc2ccc(NCc3cccc(C(F)(F)F)c3)cc2n(CCNC(=O)CO)c1=O	7.42	56%	54%	–	AUC (Rattus norvegicus [3]): 148 ng·h/mL; Cmax [4]: 374 ng/mL; bioavailability [5]: 78%; clearance [6]: 88.1 mL/min/kg; Vd [7]: 7.22 L/kg; half-life [8]: 0.95 h; Papp A→B [9]: 6.8 ×10⁻⁶ cm/s; Papp B→A [10]: 48.2 ×10⁻⁶ cm/s; pIC50 [11]: < 4.52; pIC50 (Acyl-CoA 6-desaturase): < 4.52; Activity (Rattus norvegicus [12]): Dose-dependent effect; Activity (Rattus norvegicus [13]): Dose-dependent effect; Activity (Rattus norvegicus [14]): 50%
CC(=O)NCCn1c(=O)c(C)nc2ccc(NCc3cccc(C(F)(F)F)c3)cc21	6.79	–	–	–	–
COc1ccc(-c2nc3ccc(NCc4cccc(C(F)(F)F)c4)cc3n(CCNC(C)=O)c2=O)cc1	7.03	–	–	7.48	–
CC1Oc2ccc(NCc3ccc(Cl)c(Cl)c3)cc2N(CCNC(=O)CO)C1=O (racemic)	7.10	2.3%	1.5%	–	–
O=C(CO)NCCn1c(=O)c(C(F)(F)F)nc2ccc(NCc3cccc(C(F)(F)F)c3)cc21	8.72	19%	77%	8.57	–
O=C(CO)NCCN1C(=O)COc2ccc(NCc3ccc(Cl)c(Cl)c3)cc21	–	32%	14%	9.30	AUC (Rattus norvegicus [3]): 122 ng·h/mL; Cmax [4]: 427 ng/mL; bioavailability [5]: 39%; clearance [6]: 53 mL/min/kg; Vd [7]: 4.89 L/kg; half-life [8]: 1.07 h
COc1ccc(-c2nc3ccc(NCc4ccc(Cl)c(Cl)c4)cc3n(CCNC(C)=O)c2=O)cc1	6.96	83%	54%	–	AUC (Rattus norvegicus [3]): 0 ng·h/mL
O=C(CO)Nc1ccc2ncn(Cc3ccc(Cl)c(Cl)c3)c(=O)c2c1	–	–	–	6.92	AUC (Rattus norvegicus [3]): 935 ng·h/mL; Cmax [4]: 360 ng/mL; Vd [7]: 2.06 L/kg
Cc1nc2ccc(NCc3cccc(C(F)(F)F)c3)cc2n(CCNC(=O)CCO)c1=O	5.96	–	–	–	–
Cc1nc2ccc(NCc3cccc(C(F)(F)F)c3)cc2n(CCNC(N)=O)c1=O	7.82	–	–	< 6.00	–
Cc1nc2ccc(NCc3cccc(C(F)(F)F)c3)cc2n(CCNC(=O)C(O)CO)c1=O (racemic)	6.57	–	–	7.17	–
COc1ccc(-c2nc3ccc(NCc4ccc(Cl)c(C(F)(F)F)c4)cc3n(CCNC(C)=O)c2=O)cc1	9.22	–	–	–	–
CC1(C)Oc2ccc(NCc3ccc(Cl)c(Cl)c3)cc2N(CCNC(=O)CO)C1=O	7.92	3.1%	9.6%	–	–
Cc1nc2ccc(NCc3cccc(C(F)(F)F)c3)cc2n(CCNC(=O)[C@@H](C)O)c1=O	5.41	–	–	–	–
CC(C)c1nc2ccc(NCc3cccc(C(F)(F)F)c3)cc2n(CCNC(=O)CO)c1=O	5.55	–	–	–	–
O=C(CO)Nc1ccc2ncn(Cc3ccc(Cl)c(C(F)(F)F)c3)c(=O)c2c1	–	–	–	–	AUC (Rattus norvegicus [3]): 451 ng·h/mL; Cmax [4]: 439 ng/mL; Vd [7]: 1.46 L/kg
Cc1nc2ccc(NCc3cccc(C(F)(F)F)c3)cc2n(CCNC(=O)[C@H](C)O)c1=O	5.10	–	–	–	–
CC(C)(C)c1nc2ccc(NCc3cccc(C(F)(F)F)c3)cc2n(CCNC(=O)CO)c1=O	< 5.52	–	–	–	–
